Results: US6537744B1, “Use of biomarkers in saliva to evaluate the toxicity of agents and the function of tissues in both biomedical and environmental applications” (priority 1995, dated 2003)
“And” between values parts separate entries of the source, which are not always exact repeats. Equal entries are not always repeated.

Assays:
[1] = tested on: carboxylase in human saliva; assay: Inhibition of carboxylase in human saliva (p-nitrophenylvalerate hydrolysis, 400 nm); type: biochemical; conditions: for inhibition of carboxylase (in words): human saliva
Experimental: The carboxylase activity in saliva samples is monitored by the hydrolysis of p-nitrophenylvalerate to the readily detectable p-nitrophenol. The concentration of p-nitrophenol in the sample is measured spectrophotometrically at 400 nm, and the value is calculated from p-nitrophenol standard curve (Table 3 and FIG. 4). Values for carboxylase activity in saliva (nmol. min-1 per mL of saliva) are presented in Tables 4-8 and showing in FIG. 5 and FIG. 6. The average specific activity for carboxylase in human saliva is about 47 nmol min^−1 per mL.
The assay for carboxylase consists of 4 mL of tris-HCl buffer (pH 7.0) that contain 25 μL of p-nitrophenylvalerate (13.8 mg/mL of alcohol) and 50-500 μL of human saliva. […] In the inhibition study, the agent is incubated with saliva for about 15-20 minutes before the addition of p-nitrophenylvalerate. Organophosphate concentration is verified by gas chromatography using standard methods as described by Knaak et al. (1993).

[2] = tested on: acetylcholinesterase in human saliva; assay: Inhibition of acetylcholinesterase in human saliva (acetylthiocholine iodide/DTNB, 405 nm); type: biochemical; conditions: for inhibition of acetylcholinesterase (in words): human saliva
Experimental: The hydrolysis of acetylthiocholine iodide (an analog of acetylcholine iodides) by the saliva enzyme or enzymes is measured by generating the yellow 5-thio-2-nitrobenzoate with an absorbance maximum at 405 nm. The rate of change of absorbance is directly proportional to acetylcholinesterase activity. In this procedure, 0.1-1 mL of saliva (3.261 mg protein/mL) is incubated with 100 μL of acetylthiocholine iodide (0.018M) (lot #10H0653 Sigma) for 30-180 minute at 37° C. in 4.0 mL phosphate buffer (pH 7.8). After the incubation, a 0.2 mL of DTNB is added and the sample is read at 405 nm. The enzyme activity is calculated from glutathione standard curve (Table 9 and FIG. 9). Values for AChE activity in human saliva and enzyme kinetics are presented in Tables 10-14 and show in FIG. 10 through FIG. 14.
The AChE specific activity in saliva is about 4 nmol minute^−1 per mL of saliva. […] The percent of enzyme inhibition by organophosphate is calculated and presented in Tables 13-14 and showing in FIG. 15.

[3] = 22 μg/mL, Test #2, 50 μL saliva, 20 min preincubation
[4] = 29 μg/ml in Tris/Citrate, test #1, 200 μL saliva, 15 min preincubation, 37° C.
[5] = 60 μg/mL, Test #2, 50 μL saliva, 20 min preincubation
[6] = 500 μg/ml, test #1, 200 μL saliva, 15 min preincubation, 37° C.
[7] = 240 μg of isofenphos in 4.0 mL, Test #2, 200 μL saliva, 37° C.

## CCOP(=O)(OCC)Oc1ccc([N+](=O)[O-])cc1 [Paraoxon, paraoxon]
[1]; [3]
  % Act.: 40%
  Absorb. at 400 nm for 20 min.: .23
  Absorb. at 400 nm for 100 min.: .76
[1]; [4]
  % Inhib.: 99%
  Absorb. at 400 nm for 20 min.: .03
  Absorb. at 400 nm for 60 min.: .14
[1]
  inhibition of carboxylase (in words): inhibited
[2]
  inhibition of acetylcholinesterase (in words): inhibited

## CCOP(=S)(NC(C)C)Oc1ccccc1C(=O)OC(C)C (centres unmarked) [Isofenphos, isofenphos]
[1]; [5]
  % Act.: 92%
  Absorb. at 400 nm for 65 min.: 2.0 and 1.1
  Absorb. at 400 nm for 100 min.: 2.0 and 1.5
[1]; [6]
  % Inhib.: 84%
  Absorb. at 400 nm for 20 min.: .33
  Absorb. at 400 nm for 60 min.: .75
[1]
  inhibition of carboxylase (in words): inhibited
[2]; [7]
  Absorb. at 405 nm for 50 min.: .41
  Absorb. at 405 nm for 110 min.: .43
  Absorb. at 405 nm for 165 min.: .51
[2]; 240 μg of isofenphos in 4.0 mL, Test #2, 200 μL saliva, 37° C. (no inhibitor: 1.14)
  Activity: 1.02 nmol/min
[2]
  inhibition of acetylcholinesterase (in words): inhibited
